Assay results: ChEMBL document CHEMBL1141546, “Diamine derivatives containing imidazolidinylidene propanedinitrile as a new class of histamine H3 receptor antagonists. Part I” (Bioorg Med Chem Lett, 2008)

How the values were obtained:
Histamine H3 receptor [1] = target: T1, Histamine H3 receptor (Homo sapiens, UniProt Q9Y5N1); test: Displacement of [3H]N-alpha-methylhistamine from human cloned histamine H3 receptor expressed in monkey COS7 cells; format: cell-based, COS-7
Histamine H3 receptor [2] = target: T2, Histamine H3 receptor (Rattus norvegicus, UniProt Q9QYN8); test: Displacement of [3H]N-alpha-methylhistamine from histamine H3 receptor in rat striatal membrane; format: cell membranes, Striatum
Histamine H3 receptor [3] = target: T2, Histamine H3 receptor; test: Antagonist activity at histamine H3 receptor in rat forebrain assessed as inhibition of [3H]histamine release from synaptosomes; format: functional, subcellular, Brain
[4] = target: Histamine H1 receptor (Homo sapiens) (UniProt P35367); test: Displacement of [3H]pyrilamine from human H1 receptor expressed in monkey COS7 cells at 1 uM; format: cell-based; conditions: COS-7
[5] = target: Histamine H2 receptor (Homo sapiens) (UniProt P25021); test: Displacement of [3H]tiotidine from human H2 receptor expressed in monkey COS7 cells at 1 uM; format: cell-based; conditions: COS-7
[6] = target: Histamine H4 receptor (Homo sapiens) (UniProt Q9H3N8); test: Displacement of [3H]histamine from human H4 receptor expressed in monkey COS7 cells at 1 uM; format: cell-based; conditions: COS-7
[7] = target: Histamine H1 receptor (Homo sapiens) (UniProt P35367); test: Displacement of [3H]pyrilamine from human H1 receptor expressed in monkey COS7 cells at 10 uM; format: cell-based; conditions: COS-7
[8] = target: Histamine H2 receptor (Homo sapiens) (UniProt P25021); test: Displacement of [3H]tiotidine from human H2 receptor expressed in monkey COS7 cells at 10 uM; format: cell-based; conditions: COS-7
[9] = target: Histamine H4 receptor (Homo sapiens) (UniProt Q9H3N8); test: Displacement of [3H]histamine from human H4 receptor expressed in monkey COS7 cells at 10 uM; format: cell-based; conditions: COS-7
Histamine H3 receptor [10] = target: T1, Histamine H3 receptor; test: Displacement of [3H]N-alpha-methylhistamine from human cloned histamine H3 receptor expressed in monkey COS7 cells at 0.1 uM; format: cell-based; conditions: COS-7
Histamine H3 receptor [11] = target: T1, Histamine H3 receptor; test: Displacement of [3H]N-alpha-methylhistamine from human cloned histamine H3 receptor expressed in monkey COS7 cells at 1 uM; format: cell-based; conditions: COS-7
[12] = target: Histamine H3 receptor (Rattus norvegicus) (UniProt Q9QYN8); test: Displacement of [3H]N-alpha-methylhistamine from histamine H3 receptor in rat striatal membrane at 0.1 uM; format: cell membranes; conditions: Striatum
[13] = target: Histamine H3 receptor (Rattus norvegicus) (UniProt Q9QYN8); test: Displacement of [3H]N-alpha-methylhistamine from histamine H3 receptor in rat striatal membrane at 1 uM; format: cell membranes; conditions: Striatum

T1 sequence (Q9Y5N1 whole entry): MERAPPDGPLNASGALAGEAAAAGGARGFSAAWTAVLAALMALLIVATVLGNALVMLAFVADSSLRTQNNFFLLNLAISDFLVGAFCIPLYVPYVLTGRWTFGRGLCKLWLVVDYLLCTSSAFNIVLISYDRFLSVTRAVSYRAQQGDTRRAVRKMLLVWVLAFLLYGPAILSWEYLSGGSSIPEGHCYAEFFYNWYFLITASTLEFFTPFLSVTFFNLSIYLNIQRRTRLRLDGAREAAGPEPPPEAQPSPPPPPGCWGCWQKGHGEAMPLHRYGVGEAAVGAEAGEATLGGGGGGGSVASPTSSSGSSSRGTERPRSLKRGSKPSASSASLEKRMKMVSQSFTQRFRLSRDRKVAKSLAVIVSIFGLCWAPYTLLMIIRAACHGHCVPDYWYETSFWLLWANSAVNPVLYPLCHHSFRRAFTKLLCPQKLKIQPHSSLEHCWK
Chain of Histamine H2 receptor (Homo sapiens) (P25021 whole entry): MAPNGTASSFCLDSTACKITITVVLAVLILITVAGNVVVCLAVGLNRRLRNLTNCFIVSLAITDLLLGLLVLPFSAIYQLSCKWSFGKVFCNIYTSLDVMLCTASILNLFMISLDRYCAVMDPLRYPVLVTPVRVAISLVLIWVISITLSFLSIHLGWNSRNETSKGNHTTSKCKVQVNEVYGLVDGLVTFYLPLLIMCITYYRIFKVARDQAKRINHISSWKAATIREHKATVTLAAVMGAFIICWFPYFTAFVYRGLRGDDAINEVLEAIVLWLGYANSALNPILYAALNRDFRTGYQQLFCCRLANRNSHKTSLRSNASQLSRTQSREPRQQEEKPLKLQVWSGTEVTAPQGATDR
T2 sequence (Q9QYN8 whole entry): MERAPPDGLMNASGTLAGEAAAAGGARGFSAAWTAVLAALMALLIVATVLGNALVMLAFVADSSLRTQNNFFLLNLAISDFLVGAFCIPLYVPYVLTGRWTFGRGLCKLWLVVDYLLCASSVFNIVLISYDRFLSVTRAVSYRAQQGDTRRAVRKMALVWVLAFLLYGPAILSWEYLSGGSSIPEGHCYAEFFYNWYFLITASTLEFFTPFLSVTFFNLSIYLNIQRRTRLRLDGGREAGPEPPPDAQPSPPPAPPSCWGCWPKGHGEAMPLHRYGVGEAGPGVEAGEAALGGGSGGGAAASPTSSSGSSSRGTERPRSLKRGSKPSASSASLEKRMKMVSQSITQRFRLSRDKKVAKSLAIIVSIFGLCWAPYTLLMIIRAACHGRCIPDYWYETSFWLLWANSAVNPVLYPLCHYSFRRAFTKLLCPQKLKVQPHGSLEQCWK
Chain of Histamine H3 receptor (Rattus norvegicus) (Q9QYN8 whole entry): as above
Chain of Histamine H1 receptor (Homo sapiens) (P35367 whole entry): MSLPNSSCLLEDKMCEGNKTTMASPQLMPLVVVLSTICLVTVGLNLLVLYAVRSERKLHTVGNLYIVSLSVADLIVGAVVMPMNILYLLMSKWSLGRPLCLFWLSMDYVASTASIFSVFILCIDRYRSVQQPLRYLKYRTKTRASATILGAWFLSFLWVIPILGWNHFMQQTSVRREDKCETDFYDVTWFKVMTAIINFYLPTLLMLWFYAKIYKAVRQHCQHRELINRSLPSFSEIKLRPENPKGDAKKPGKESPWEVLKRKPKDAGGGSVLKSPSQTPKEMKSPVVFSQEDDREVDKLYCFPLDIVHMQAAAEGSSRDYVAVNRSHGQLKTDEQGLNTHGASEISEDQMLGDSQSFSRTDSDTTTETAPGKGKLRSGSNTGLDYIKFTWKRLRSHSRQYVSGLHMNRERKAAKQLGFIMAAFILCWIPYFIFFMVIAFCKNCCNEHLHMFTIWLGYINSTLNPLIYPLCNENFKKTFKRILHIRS

SMILES | Ki (Histamine H3 receptor [1]) [nM] | Ki (Histamine H3 receptor [2]) [nM] | IC50 (Histamine H3 receptor [3]) [nM] | inhibition [4] [%] | inhibition [5] [%] | inhibition [6] [%] | inhibition [7] [%] | inhibition [8] [%] | inhibition [9] [%] | inhibition (Histamine H3 receptor [10]) [%] | inhibition (Histamine H3 receptor [11]) [%] | inhibition [12] [%] | inhibition [13] [%]
N#CC(C#N)=C1N(CCCN2CCCCC2)CCN1CCN1CCCCC1 | 6.6 | 6.3 |  |  |  |  |  |  |  |  |  |  | 
c1cc(OCCCN2CCCCC2)ccc1CN1CCCCC1 [JNJ-5207852] |  | 1.26 |  |  |  |  |  |  |  |  |  |  | 
N#CC(C#N)=C1N(CCCN2CCCCC2)CCN1Cc1cccc2ccccc12 | 36 | 690 |  |  |  |  |  |  |  |  |  |  | 
CC1CCCN1CCN1CCN(CCN2CCCC2C)C1=C(C#N)C#N (racemic) | 0.33 | 0.68 | 4.9 | 10 | 1 | -8 | 21 | 0 | -7 |  |  |  | 
N#CC(C#N)=C1N(CCCCN2CCCCC2)CCN1CCN1CCCCC1 | 16 | 8.6 |  |  |  |  |  |  |  |  |  |  | 
CCN(CCCN(C)C)CCN1CCN(Cc2cccc3ccccc23)C1=C(C#N)C#N | 83 | 75 |  |  |  |  |  |  |  |  |  |  | 
C[C@@H]1CCCN1CCN1CCN(CCN2CCC[C@H]2C)C1=C(C#N)C#N | 1.3 | 1.1 |  | 0 | -7 | 9 | -4 | -1 | 8 |  |  |  | 
N#CC(C#N)=C1N(CCN2CCCCC2)CCN1CCN1CCOCC1 |  |  |  |  |  |  |  |  |  | 37 | 69 | 44 | 82
N#CC(C#N)=C1N(CCN2CCCCC2)CCN1CCN1CCCCC1 | 24 | 55 |  |  |  |  |  |  |  |  |  |  | 
N#CC(C#N)=C1N(CCN2CCCCC2)CCN1CCN1CCC(O)C1 (racemic) |  |  |  |  |  |  |  |  |  | 49 | 70 | 57 | 86

Now from value to compound:

Ki (Histamine H3 receptor [1]) [nM] | Ki (Histamine H3 receptor [2]) [nM] | IC50 (Histamine H3 receptor [3]) [nM] | inhibition [4] [%] | inhibition [5] [%] | inhibition [6] [%] | inhibition [7] [%] | inhibition [8] [%] | inhibition [9] [%] | inhibition (Histamine H3 receptor [10]) [%] | inhibition (Histamine H3 receptor [11]) [%] | inhibition [12] [%] | inhibition [13] [%] | SMILES
2.4 | 2.6 | 28 | 3 | -5 | 11 | 21 | -4 | -1 |  |  |  |  | N#CC(C#N)=C1N(CCCN2CCCCC2)CCN1CCCN1CCCCC1
 |  |  |  |  |  |  |  |  | 43 | 68 | 51 | 85 | N#CC(C#N)=C1N(CCCCN2CCCCC2)CCN1CCCCN1CCCCC1
0.38 | 0.69 |  | 5 | -8 | 2 | 9 | -4 | 6 |  |  |  |  | CC1CCCN1CCN1CCN(CCN2CCCCC2)C1=C(C#N)C#N (racemic)
0.34 | 0.48 | 1.9 | 8 | 2 | 9 | 14 | -2 | 0 |  |  |  |  | C[C@H]1CCCN1CCN1CCN(CCN2CCC[C@@H]2C)C1=C(C#N)C#N
 |  |  |  |  |  |  |  |  | 37 | 74 | 43 | 82 | CN1CCN(CCN2CCN(CCN3CCCCC3)C2=C(C#N)C#N)CC1
0.47 | 0.77 |  | -3 |  | 6 | 7 | -9 | -3 |  |  |  |  | C[C@@H]1CCCN1CCN1CCN(CCN2CCC[C@@H]2C)C1=C(C#N)C#N
 |  |  |  |  |  |  |  |  | 48 | 74 | 65 | 88 | N#CC(C#N)=C1N(CCCCN2CCCCC2)CCN1CCCN1CCCCC1
